Reference: PubChem BioAssay (NCI)
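In this assay, cells in 96-well plates receive the compound at five concentrations for 48 hours. Endpoints are linearly interpolated between the surrounding concentrations. TGI: concentration producing complete growth inhibition.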

Columns and labels:
Experiment in all cases: inhibition of tumour cell growth, NCI panel, 48 h
SF-539 CNS = system: SF-539 CNS
786-0 renal = system: 786-0 renal
HCT-15 colon = system: HCT-15 colon
SR leukemia = system: SR leukemia
SF-295 CNS = system: SF-295 CNS
DU-145 prostate = system: DU-145 prostate
OVCAR-5 ovarian = system: OVCAR-5 ovarian
ACHN renal = system: ACHN renal
SK-OV-3 ovarian = system: SK-OV-3 ovarian
HOP-92 NSCLC = system: HOP-92 NSCLC
LOX IMVI melanoma = system: LOX IMVI melanoma
OVCAR-4 ovarian = system: OVCAR-4 ovarian
SF-268 CNS = system: SF-268 CNS
EKVX NSCLC = system: EKVX NSCLC
SK-MEL-5 melanoma = system: SK-MEL-5 melanoma
SW-620 colon = system: SW-620 colon
SK-MEL-28 melanoma = system: SK-MEL-28 melanoma
PC-3 prostate = system: PC-3 prostate
NCI-H23 lung = system: NCI-H23 lung
SK-MEL-2 melanoma = system: SK-MEL-2 melanoma
BT-549 breast = system: BT-549 breast
UACC-62 melanoma = system: UACC-62 melanoma
MDA-N = system: MDA-N
OVCAR-3 ovarian = system: OVCAR-3 ovarian
CCRF-CEM leukemia = system: CCRF-CEM leukemia
MDA-MB-231 breast = system: MDA-MB-231 breast
CAKI-1 renal = system: CAKI-1 renal
MCF7 breast = system: MCF7 breast
SN12C renal = system: SN12C renal
OVCAR-8 ovarian = system: OVCAR-8 ovarian
RPMI-8226 leukemia = system: RPMI-8226 leukemia
U251 CNS = system: U251 CNS
SNB-75 CNS = system: SNB-75 CNS
A498 renal = system: A498 renal
NCI-H460 lung = system: NCI-H460 lung
COLO 205 colon = system: COLO 205 colon
TK-10 renal = system: TK-10 renal
T-47D breast = system: T-47D breast
MALME-3M melanoma = system: MALME-3M melanoma
HT29 colon = system: HT29 colon
NCI/ADR-RES ovarian = system: NCI/ADR-RES ovarian
HS 578T breast = system: HS 578T breast
MDA-MB-435 = system: MDA-MB-435
KM12 colon = system: KM12 colon
IGROV1 ovarian = system: IGROV1 ovarian
RXF 393 renal = system: RXF 393 renal
SNB-19 CNS = system: SNB-19 CNS
NCI-H522 lung = system: NCI-H522 lung
NCI-H226 lung = system: NCI-H226 lung
A549 NSCLC = system: A549 NSCLC
UACC-257 melanoma = system: UACC-257 melanoma
HOP-62 NSCLC = system: HOP-62 NSCLC
K-562 leukemia = system: K-562 leukemia
MOLT-4 leukemia = system: MOLT-4 leukemia
HCT-116 colon = system: HCT-116 colon
M14 melanoma = system: M14 melanoma
HL-60(TB) leukemia = system: HL-60(TB) leukemia
HCC-2998 colon = system: HCC-2998 colon
UO-31 renal = system: UO-31 renal

Measured: TGI

CC(=O)C(C(=N)C#N)C(=O)Nc1ccccc1 (centres undefined)
not listed: HL-60(TB) leukemia | HCC-2998 colon | UO-31 renal
> 100 µM: all other assays above

Cc1nc2ccc(S(=O)(=O)Nc3ccccn3)cc2c(=O)n1NS(=O)(=O)c1ccccn1
not listed: A549 NSCLC
> 100 µM: all other assays above
